Values after ≈ are worked out from the molar mass of the structure shown. Where two headings read alike, the source gives them in different places.
Legend:
[1] = tested on: 2 clinical C. difficile strains; test: Initial screening of antiparasitic drugs, both strains; assay type: cell-based, Clostridium difficile; details: Clostridioides difficile, both tested C. difficile strains, read-out: MIC (growth inhibitory concentration)
Method: (§1) C. difficile strains were grown anaerobically on brain heart infusion supplemented (BHIS) agar plates at 37° C. for 48 hours. Afterwards, a bacterial solution equivalent to 0.5 McFarland standard was prepared and diluted in (BHIS) broth to achieve a bacterial concentration of about 5×10^5 CFU/mL. Drugs were added and serially diluted along the plates. Plates were then, incubated anaerobically at 37° C. for 48 hours. MICs reported in Table (1) are the minimum concentrations of the drugs that could completely suppress the visual growth of bacteria.

[2] = tested on: Lactobacillus crispatus HM-371; test: MIC against normal gut microflora, broth microdilution; assay type: cell-based; details: HM371
Method: (§2) In vitro antimicrobial evaluation of diiodohydroxyquinoline against normal microflora. The broth microdilution assay was utilized to determine the MICs of DIHQ and control antibiotics against commensal organisms that compose he human gut microflora, as described elsewhere. A bacterial solution equivalent to 0.5 McFarland standard was prepared and diluted in BHIS broth (for Bifidobacterium and Bacteroides) or in MRS broth (for Lactobacillus) to achieve a bacterial concentration of about 5×10^5 CFU/mL. Then, drugs were added and serially diluted along the plates.

[3] = tested on: Bifidobacterium angulatum HM-1189; test: as above; assay type: cell-based; details: HM1189
Method: as §2

[4] = tested on: Bacteroides dorei HM-29; test: as above; assay type: cell-based; details: Phocaeicola dorei, HM29
Method: as §2

[5] = tested on: C. difficile ATCC BAA-1870; test: Initial screening of antiparasitic drugs, broth microdilution MIC; assay type: cell-based, Clostridium difficile; details: Clostridioides difficile
Method: as §1

[6] = tested on: C. difficile ATCC 43255; test: as above; assay type: cell-based, Clostridium difficile; details: Clostridioides difficile, ATCC43255
Method: as §1

[7] = tested on: species of Bacteroides and Bifidobacterium; test: MIC against normal gut microflora; assay type: cell-based; details: species of Bacteroides and Bifidobacterium tested; for DIHQ except B. longum, B. adolescentis, B. angulatum; read-out: MIC (growth inhibitory concentration)
Method: as §2

[8] = tested on: Bifidobacterium longum; test: MIC against normal gut microflora; assay type: cell-based; details: both strains
Method: as §2

[9] = tested on: C. difficile clinical isolates; test: Checkerboard assay, summary over 9 tested strains; assay type: cell-based, Clostridium difficile
Method: Interactions between diiodohydroxyquinoline and the anticlostridial drugs (metronidazole and vancomycin) against Clostridium difficile clinical isolates. […] The fractional inhibitory concentration index (ΣFIC) was calculated for each interaction. Interactions where the ΣFIC index was ≤0.5 were categorized as synergistic (SYN).

[10] = tested on: Lactobacillus and Bacteroides strains; test: MIC against normal gut microflora; assay type: cell-based; details: Phocaeicola dorei; Lactobacillus and Bacteroides strains tested, with the exception of B. dorei HM-719; read-out: MIC (growth inhibitory concentration)
Method: as §2

[11] = tested on: Bifidobacterium strains; test: MIC against normal gut microflora; assay type: cell-based; details: Bifidobacterium strains tested
Method: as §2

[12] = Lactobacillus crispatus HM-371, read-out: MIC
[13] = Bifidobacterium angulatum HM-1189, read-out: MIC
[14] = Bacteroides dorei HM-29, read-out: MIC
[15] = initial screening, C. difficile ATCC 43255, read-out: MIC

SMILES | MIC [1] [µg/mL] | MIC [2, 12] [µg/mL] | MIC [3, 13] [µg/mL] | MIC [4, 14] [µg/mL] | MIC ([5]; initial screening, C. difficile ATCC BAA 1870, read-out: MIC) [µg/mL] | MIC [6, 15] [µg/mL] | MIC [7] [µg/mL] | MIC [8] [µg/mL] | tested strains with a synergistic relationship ([9]; DIHQ combined with metronidazole) | tested strains with a synergistic interaction ([9]; DIHQ combined with vancomycin) | MIC [10] [µg/mL] | MIC ([2]; Lactobacillus crispatus) [µg/mL] | MIC ([3]; Bifidobacterium angulatum) [µg/mL] | MIC [4] [µg/mL] | MIC [5] [µg/mL] | MIC [6] [µg/mL] | MIC [11] [µg/mL]
Oc1c(I)cc(I)c2cccnc12 [DIHQ, 5,7-diiodoquinolin-8-ol] | 0.5 to 1 (≈ 1.26 to 2.52 µM) | 64 (≈ 161 µM) | 128 (≈ 322 µM) | > 128 | 1 (≈ 2.52 µM) | 0.5 (≈ 1.26 µM) | > 128 | 64 to 128 (≈ 161 to 322 µM) | 7 out of 9 | 5 out of 9 |  |  |  |  |  |  | 
CCc1c(Cl)c(O)c(Cl)c(O)c1C(=O)O[C@H]1[C@H](O)[C@H](OC)[C@H](OC/C2=C\C=C\C[C@H](O)/C(C)=C/[C@H](CC)[C@@H](O[C@@H]3OC(C)(C)[C@@H](OC(=O)C(C)C)[C@H](O)[C@@H]3O)/C(C)=C/C(C)=C/C[C@@H]([C@@H](C)O)OC2=O)O[C@@H]1C [Fidaxomicin, fidaxomicin] |  | > 128 | ≤ 1 | > 128 |  |  |  |  |  |  | > 128 |  |  |  |  |  | 
Cc1ncc([N+](=O)[O-])n1CCO [Metronidazole, metronidazole] |  | > 128 | ≤ 1 | ≤ 1 |  | 0.25 (≈ 1.46 µM) | ≤ 2 |  |  |  |  |  |  |  |  |  | 
CN[C@H](CC(C)C)C(=O)N[C@H]1C(=O)N[C@@H](CC(N)=O)C(=O)N[C@H]2C(=O)N[C@H]3C(=O)N[C@H](C(=O)N[C@H](C(=O)O)c4cc(O)cc(O)c4-c4cc3ccc4O)[C@H](O)c3ccc(c(Cl)c3)Oc3cc2cc(c3O[C@@H]2O[C@H](CO)[C@@H](O)[C@H](O)[C@H]2O[C@H]2C[C@](C)(N)[C@H](O)[C@H](C)O2)Oc2ccc(cc2Cl)[C@H]1O [Vancomycin, vancomycin] |  |  |  |  |  |  |  |  |  |  |  | 4 (≈ 2.76 µM) | ≤ 1 | 64 (≈ 44.2 µM) | 1 (≈ 0.69 µM) | 1 (≈ 0.69 µM) | ≤ 1

Source: patent US11806342B2, “Diiodohydroxyquinoline for the treatment of clostridium difficile infection” (Purdue Research Foundation, priority 2019, dated 2023)
